# Data from patent publication US20110183904A1, “METHODS AND COMPOSITIONS FOR ALTERING BEHAVIOR ASSOCIATED WITH AUTISM SPECTRUM DISORDER” (The Children's Mercy Hospital, priority 2008, published 2011).
# “Also recorded” adds a separate entry of the source.
# What was measured:
# Gαq mRNA in PBMCs = Gαq mRNA in PBMCs co-cultured with OT; assay type: cell-based, human
# Procedure: (§1) Both Gαs and Gαq mRNA were measured after PBMCs were incubated with vehicle (untreated condition) and after co-culture with hormone. For some subjects, the PBMC quantity yielded insufficient mRNA for PCR analysis. Gαs PCR was completed on 10 ASD girls, 9 control girls, 10 ASD boys, and 9 control boys. Gαq PCR was completed on 10 ASD girls, 8 control girls, 10 ASD boys, and 9 control boys.
# (§2) Samples were taken from the patients, as described in Example 1, and mRNA was isolated from cells exposed to oxytocin and analyzed for amount of mRNA expressing Gαs and Gαq.
# (§3) PBMC isolation, hormone treatment and cell culture. PBMCs were isolated from heparinized blood using Histopaque 1077 (Sigma-Aldrich, St. Louis, Mo.). Briefly, 5 ml of blood was diluted 1:1 in PBS and carefully layered onto 3 ml of Histopaque 1077 in a 50 ml conical centrifuge tube. Tubes were centrifuged at 400 g for 30 min at RT. The buffy coat was removed from the tube and washed three times in complete RPMI without phenol red. Cell counts and viability were determined using Trypan blue. Cell viability was >95%. […]
# (§4) RNA isolation and quantitation. […] RNA was examined by spectrophotometry and quantitated using the Ribogreen assay (Invitrogen, Carlsbad, Calif.). […] Ribogreen reagent (1:200) was added to samples and standards, and samples were read on a Bio-Tek FLx800 fluorescent plate reader. […]
# [1] = system: Gαs and Gαq protein in PBMCs; test: G-protein expression (Gαs and Gαq) in PBMCs exposed to oxytocin (immunoblot); assay type: cell-based, human
# Procedure: Membrane preparation for membrane-associated proteins. For protein studies, PBMC's were manipulated at 4° C., as previously described in Example 4. PBMC's were individually homogenized (1:30, wt/vol) in ice-cold 0.25 M sucrose and 50 mM Tris-HCL, (pH 7.6) in a Dounce homogenizer, centrifuged twice at 800×g for 5 min before centrifugation of the supernatants at 30,000×g for 60 min. The pellet was resuspended in assay buffer and used directly in the binding assay. Protein concentration was determined by BCA protein assay kit (Pierce, Rockford, Ill.) using bovine serum albumin (BSA) as a standard.
# Immunoblot analysis for membrane-associated proteins. Total membrane proteins were prepared as for receptor assays above. Samples were electrophoresed in 12% Tris-HCl resolving gels and transferred to 0.45 μm nitrocellulose membranes (Bio-Rad, Hercules, Calif.) by electroblotting. […] After three washes in TBST, membranes were incubated for 1 h in TBST and 1% non fat dry milk with horseradish peroxidase conjugated 2° antibodies (Jackson Immunoresearch, West Grove, Pa.). Bands were visualized by exposure of the membranes to autoradiographic film (MidSci, St. Louis, Mo.). The membranes were then stripped with Restore™ Western Blot Stripping Buffer (Pierce, Rockford Ill.) for 30 min at 37° C. and reprobed for actin protein as an internal control. The bands were quantified using a densitometer (GE Healthcare, Piscataway, N.J.).
# Specific G protein antibodies. Specific Gαs and Gαq/11 antibodies made in rabbit without cross reactivity to other G proteins were used at a 1:500 dilution and originated from Santa Cruz Biotechnology (Santa Cruz, Calif.).
# [2] = system: Gαs in murine spleen cells; test: Gαs expression in murine spleen cells exposed to OT (previous findings in this lab); assay type: cell-based; conditions: both sexes
# male university students = conditions: intra-nasally; cited from earlier work
# Gαs mRNA in PBMCs = Gαs mRNA in PBMCs co-cultured with OT; assay type: cell-based, human
# Procedure: as §1, §2, §3, §4
# [3] = system: Gαs mRNA and Gαq mRNA in PBMCs; test: G-protein mRNA (Gαs and Gαq) in PBMCs exposed to oxytocin; assay type: cell-based, human
# Procedure: as §1, §2
# PBMC isolation, hormone treatment and cell culture. PBMCs were isolated from heparinized blood using Histopaque 1077 (Sigma-Aldrich, St. Louis, Mo.). Briefly, 5 ml of blood was diluted 1:1 in PBS and carefully layered onto 3 ml of Histopaque 1077 in a 50 ml conical centrifuge tube. Tubes were centrifuged at 400 g for 30 min at RT. The buffy coat was removed from the tube and washed three times in complete RPMI without phenol red. Cell counts and viability were determined using Trypan blue. Cell viability was >95%. Resultant PBMC's were suspended in complete RPMI with 10% charcoal stripped, dilapidated fetal calf serum (FCS) (Invitrogen, Carlsbad, Calif.) and added in 1 ml aliquots to 12 well plate with vehicle and oxytocin (10 ^−7M, 10 ^−8M, and 10^−9M) in RPMI+10% charcoal stripped, dilapidated FCS. Cells were incubated overnight (18-24 hr) before wells were harvested and rinsed. Cell suspensions were centrifuged at 500 g for 10 min at RT, and supernatant was aspirated. Buffer RLT Plus from the RNeasy Mini Plus Kit (QIAgen, Valencia, Calif.) was added to the cell pellets before vortexing to lyse cells. Samples were stored at −80° C. before RNA purification and isolation.
# RNA isolation and quantitation. Samples were thawed, vortexed, and placed in QIAshredder columns. Columns were centrifuged for 2 min at 15000 g. The homogenized lysate was transferred to a gDNA Eliminator spin column and centrifuged for 30 sec at 9000 g. Equal volumes of 70% ethanol were added to the eluent. The mixture was transferred to RNeasy spin columns and centrifuged for 15 sec at 9000 g. Columns were washed with Buffer RW1 and the Buffer RPE, centrifuging for 15 sec at 9000 g, each time discarding the eluent. Buffer RPE was again added and columns centrifuged for 2 min at 9000 g to dry the column. Columns were then centrifuged for 1 min at 15000 g. RNA was eluted with the addition of Nuclease-free water and spun for 1 min at 9000 g. RNA was examined by spectrophotometry and quantitated using the Ribogreen assay (Invitrogen, Carlsbad, Calif.). Samples were diluted 1:200. Standards of 0, 20, 100, 500, and 1000 ng/ml were made from E. coli ribosomal RNA in TE buffer. Ribogreen reagent (1:200) was added to samples and standards, and samples were read on a Bio-Tek FLx800 fluorescent plate reader. RNA was diluted in nuclease-free water to a final concentration of 150 ng/ml cDNA.
# cDNA construction and one-step real-time RT-PCR. Reverse transcription was performed using the SuperScript II Reverse Transcription Kit (Invitrogen, Carlsbad, Calif.). First, any residual DNA was digested away with DNase I for 15 min, with DNase activity subsequently quenched with 25 mM EDTA at 65° C. for 15 min. 10 mM dNTP and 0.5 ug/ml oligo (dT) were added to DNase-treated samples at 65° C. for 5 min. […]
# adults with ASD = conditions: cited from earlier work
# [4] = children with ASD versus controls
compound,measurement,setting,value
"CC[C@H](C)[C@@H]1NC(=O)[C@H](Cc2ccc(O)cc2)NC(=O)[C@@H](N)CSSC[C@@H](C(=O)N2CCC[C@H]2C(=O)N[C@@H](CC(C)C)C(=O)NCC(N)=O)NC(=O)[C@H](CC(N)=O)NC(=O)[C@H](CCC(N)=O)NC1=O [OT, Oxytocin]",difference in Gαq mRNA expression between ASD and control PBMCs upon exposure to OT,Gαq mRNA in PBMCs; [4],no longer significant
same,sex differences in Gαq mRNA expression with OT,Gαq mRNA in PBMCs; girls versus boys,not augmented
same,protein expression after exposure to oxytocin,[1]; children with autism,not seen
same,protein expression after exposure to oxytocin,[1]; females with autism,upward trend
same,protein expression after exposure to oxytocin,[1]; males with autism,not observed
same,protein expression after exposure to oxytocin,[1]; non-autistic patients,went up
same,Gαs expression with exposure to OT,[2],"c. Previous findings in this lab had found sex differences in Gαs in murine spleen cells as well as induction of Gαs expression in both sexes with exposure to OT,"
same,trust and prosocial behavior,male university students,might increase trust and prosocial behavior
same,difference in Gαs mRNA expression between ASD and control PBMCs upon exposure to OT,Gαs mRNA in PBMCs; [4],no longer observed; also recorded: did not have the significantly increased Gαs mRNA
same,sex differences in Gαs expression with OT exposure,"Gαs mRNA in PBMCs; girls versus boys, any group",not augmented
same,mRNA pattern after exposure to oxytocin,"[3]; autistic males, compared with control females before exposure",more feminine pattern
same,mRNA levels after exposure to oxytocin,[3]; children with autism,not seen
same,mRNA levels after exposure to oxytocin,[3]; females with autism,upward trend
same,mRNA levels after exposure to oxytocin,[3]; males with autism,not observed
same,mRNA levels after exposure to oxytocin,[3]; non-autistic patients,went up
same,affective speech comprehension,adults with ASD; OT infusion,improved
same,severity and number of different types of repetitive behaviors,adults with ASD; intravenous OT infusion,decreased
